The values that follow come from US20030125264A1, “Methods For Treating Wounds” (Kimberly-Clark Worldwide, Inc., priority 2001, published 2003).

Molecules are shown by their SMILES.

For this experiment, the system named is human foreskin fibroblasts (ATCC cell line CRL-2522). In words: proliferative response of human skin fibroblasts to flavonoids (96-well, Cell Titer 96 Aqueous One, absorbance 490 nm). The following applies: for difference in cell proliferation between controls and test compound (one-way ANOVA): P<0.01 and 0.05, vehicle control 0.1% DMSO in DMEM, n=6; for cell proliferating effect on human skin fibroblasts: at lower concentrations (samples tested at 10^-4, 10^-5 and 10^-6 M; 28 hours, serum-free DMEM, 0.1% DMSO, n=6). It is filed as cell-based. The protocol:
The proliferative response of flavonoids to the human skin fibroblast cell line (ATCC, Manassas, Va., cell line CRL-2522 human foreskin fibroblast) was determined in a 96-well assay system using serum-free medium as a control. Stock solutions of flavonoids were prepared as 1.0 mole/L solutions in Dimethyl sulfoxide (DMSO, Sigma Chemical Company, St. Louis, Mo.) then diluted with Dulbecco's Modified Eagle's Medium (DMEM, Sigma Chemical Co., St. Louis, Mo.) to 10^−4, 10^−5, and 10^−6 M solutions with a final DMSO concentration of 0.1% (v:v). Cells were seeded into 96 well plates at a concentration of 2×10^3 cells in 100 μl of DMEM containing 10% fetal bovine serum (FBS, Sigma Chemical Co., St. Louis, Mo.). Plates were incubated for 24 hours at 37° C. in a humidified, 5% CO2 atmosphere. After incubation, the medium was aspirated and the wells were rinsed twice with 100 μl of serum-free DMEM. The final rinse was aspirated and 100 μl of the 10^−4-10^−6 M of each solution was added to 6 wells. In addition, 100 μl of vehicle (serum free DMEM with DMSO at 0.1% v:v) was added to 6 wells as control. In addition, duplicate wells of each test and control solution were placed in wells without the human fibroblast cells to serve as blanks for each treatment. All wells were incubated for 28 hours at 37° C. in a humidified, 5% CO2 atmosphere. After incubation, 20 μl of Cell Titer 96 Aqueous One Solution Reagent (Promega, Corp., Madison, Wis.) was added to all wells. The plates were swirled gently and place back in the incubator for 45 minutes and spectrophotometric absorbance was read at 490 nm. Absorbance of the wells without cells was subtracted from the absorbance of the wells with cells to give the true absorbance. Various compounds of present invention were tested for their cell proliferating effect on human skin fibroblasts. The effect of flavonoids naringin and quercetin on cell proliferation in human foreskin fibroblasts (ATCC cell line CRL-2522) was measured and data is presented in FIG. 1. The control and all test materials contained a final concentration of 0.1% DMSO in DMEM with n=6. Sample concentrations were 10^−4, 10^−5 and 10^−6 M. Statistical analysis was done by using one-way ANOVA.

As for `C[C@@H]1O[C@@H](O[C@H]2[C@H](Oc3cc(O)c4c(c3)O[C@H](c3ccc(O)cc3)CC4=O)O[C@H](CO)[C@@H](O)[C@@H]2O)[C@H](O)[C@H](O)[C@H]1O` [naringin], the “difference in cell proliferation between controls and test compound (one-way ANOVA)” value is “Statistically significant difference”; the “cell proliferating effect on human skin fibroblasts” value is “good cell proliferating agents”.
Consider `O=c1c(O)c(-c2ccc(O)c(O)c2)oc2cc(O)cc(O)c12` [quercetin], for which the “difference in cell proliferation between controls and test compound (one-way ANOVA)” value is listed as “Statistically significant difference”; the “cell proliferating effect on human skin fibroblasts” value was “good cell proliferating agents”. Moreover, the “cell growth relative to the control” value (at higher concentrations (samples tested at 10^-4, 10^-5 and 10^-6 M; 28 hours, serum-free DMEM, 0.1% DMSO, n=6)) is “appears to show cell inhibition”.
